Experiments:
[1] = test system: CD8+ T cells from HLA-A2+ normal donors or HLA-A2+ melanoma patients; test: In vitro sensitization of human CD8+ T cells with TASA peptide-pulsed autologous DC, IFN-γ ELISA against peptide-pulsed T2 cells; assay type: cell-based; conditions: response = IFN-γ >30 pg/ml and >2 fold HIV-nef control
In short: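 Autologous DC pulsed with 1 μM each TASA peptide pool for 4 h, then used at 10:1 T cell:DC to stimulate CD8+ T cells: twice weekly for normal donors (analysed day 12), once for melanoma patients (day 5). Responders cultured 24 h at 5:1 with T2 cells pulsed with 1 μM peptide or control; IFN-γ measured by ELISA.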

[2] = test system: tumor-associated pericytes and VEC; test: Day 60 splenic CD8+ T cell IFN-γ response in mice cured of B16 by vaccination; assay type: cell-based, HHD mice; conditions: 60 days after tumor inoculation, IFN-γ ELISA (FIG. 12)
Text: HHD mice bearing established day seven B16 melanomas were therapeutically vaccinated with peptides derived from the TASA DLK1 or RGS5 as described in FIG. 11B. Tumors regressed to a non-detectable level over the next two weeks. Sixty days after tumor inoculation, CD8^+ T cells were MACS-isolated from the spleens of these animals and evaluated for IFN-γ production (by ELISA) in response to pericytes and VEC (flow-sorted from day 19 untreated B16 tumors or tumor-uninvolved kidneys of B16-bearing HHD mice), as well as, HLA-A2^+ T2 cells (control or pulsed with the indicated peptides). *p<0.05 versus anti-class I mAb blockade (when evaluating responses against pericytes, VEC or B16 tumor cells) or T2 cells only (when evaluating anti-peptide responses). […]
Evaluation of Specific CD8^+ T Cell Responses in HHD Mice. MACS (Miltenyi Biotec) CD8^+ splenocytes were harvested (from 3 mice/group) 7 days after the second round of DC-based vaccination (i.e. day 21 after tumor inoculation) and analyzed for reactivity against unpulsed T2 cells, TBVA peptide-pulsed T2 cells, or day 19 (flow-sorted) B16-derived PDGFRβ^+CD31^negH-2K^b(neg) pericytes or PDGFRβ^negCD31^+H-2K^b(neg) VEC isolated as previously described (Zhao et al., Mol Ther., 19:805-814, 2011). […] After 48 h, supernatants were analyzed for mIFN-γ content by specific ELISA (BD-Biosciences; lower detection limit=31.3 pg/ml). […]

LAALPHSCL (listed as Homo sapiens)
Specific CD8+ T Cell Response, HLA-A2+ Normal Donors (of 8) ([1]; number of responding donors of 8): 0 | Specific CD8+ T Cell Response, HLA-A2+ Melanoma Patients (of 10) ([1]; number of responding patients of 10): 5 | Tc1 recognition of tumor pericytes/VEC by splenic CD8+ T cells of cured mice [2]: clear Tc1 recognition of tumor (but not tumor-uninvolved kidney) pericytes

From US9937250B2, “Immunogenic tumor associated stromal cell antigen peptides and methods of their use” (University of Pittsburgh—Of the Commonwealth System of …, priority 2011, dated 2018)
